Counter-ions that a name gives are not always drawn. Like-named read-outs stand apart in the source and are kept apart here. Marks after values point to notes of the source that are not given here.
Legend:
human OAT3 [1] = target: T1, human OAT3 (Homo sapiens, UniProt Q8TCC7); assay: Inhibition of OAT3-mediated 6-carboxyfluorescein
T1 sequence (Q8TCC7 1-542): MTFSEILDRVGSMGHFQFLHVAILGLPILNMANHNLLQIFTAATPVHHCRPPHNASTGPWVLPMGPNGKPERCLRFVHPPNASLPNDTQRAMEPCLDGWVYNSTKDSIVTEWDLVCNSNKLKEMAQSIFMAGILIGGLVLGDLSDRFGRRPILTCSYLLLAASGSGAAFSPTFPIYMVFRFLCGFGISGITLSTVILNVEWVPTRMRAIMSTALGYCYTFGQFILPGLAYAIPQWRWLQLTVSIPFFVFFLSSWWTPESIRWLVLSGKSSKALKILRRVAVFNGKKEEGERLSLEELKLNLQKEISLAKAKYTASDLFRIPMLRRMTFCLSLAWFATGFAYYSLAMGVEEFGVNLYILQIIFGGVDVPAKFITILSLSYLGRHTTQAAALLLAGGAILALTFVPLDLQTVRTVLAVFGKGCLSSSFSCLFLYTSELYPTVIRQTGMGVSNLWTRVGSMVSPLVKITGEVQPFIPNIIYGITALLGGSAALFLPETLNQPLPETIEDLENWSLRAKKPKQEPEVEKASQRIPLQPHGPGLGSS

human OAT1 = target: T2, human OAT1 (Homo sapiens, UniProt Q4U2R8); assay: Inhibition of OAT1-mediated 6-carboxyfluorescein
T2 sequence (Q4U2R8 1-563): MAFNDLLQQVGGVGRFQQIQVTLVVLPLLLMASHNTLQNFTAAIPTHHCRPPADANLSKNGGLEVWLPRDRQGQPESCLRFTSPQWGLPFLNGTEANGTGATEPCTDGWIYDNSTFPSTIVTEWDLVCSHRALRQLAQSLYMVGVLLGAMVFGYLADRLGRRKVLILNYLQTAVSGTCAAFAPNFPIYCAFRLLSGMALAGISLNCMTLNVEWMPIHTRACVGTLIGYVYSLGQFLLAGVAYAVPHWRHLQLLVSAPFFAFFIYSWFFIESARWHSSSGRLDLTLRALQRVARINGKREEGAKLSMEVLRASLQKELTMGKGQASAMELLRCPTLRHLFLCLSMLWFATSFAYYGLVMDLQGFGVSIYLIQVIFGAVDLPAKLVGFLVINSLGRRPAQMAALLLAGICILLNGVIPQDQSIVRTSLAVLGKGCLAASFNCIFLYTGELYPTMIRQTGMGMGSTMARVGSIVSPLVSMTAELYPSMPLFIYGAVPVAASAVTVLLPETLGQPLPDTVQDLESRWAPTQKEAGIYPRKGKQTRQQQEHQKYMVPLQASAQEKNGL

human OAT3 [2] = target: T1, human OAT3; assay: cell-based
[3] = cited from earlier work; for Unbound Fraction / Cmax: plasma
[4] = in vivo
[5] = cited from earlier work
[6] = cited from earlier work; remark: listed apart in the source
human OAT3 [7] = target: T1, human OAT3
[8] = ref https://doi.org/10.1002/cpdd.132
[9] = ref https://doi.org/10.1002/j.1552–4604.1993.tb04699.x
[10] = ref https://doi.org/10.1124/jpet.110.165852
[11] = read-out: Ki (OAT1), HEK293 cells stably transfected with OAT1, 2 μM 6CF, 3 min, 37 °C, […]

Ki (human OAT3 [2]) [nM]	Ki (human OAT1) [nM]	Molecule	Ki (human OAT3 [1]; read-out: Ki (OAT3)) [nM]	Ki (human OAT1; read-out: Ki (OAT1)) [nM]	further results
–	–	COc1ccc2cc([C@H](C)C(=O)O[C@@H]3O[C@H](C(=O)O)[C@@H](O)[C@H](O)[C@H]3O)ccc2c1 [(S)-naproxen acyl-β-D-glucuronide]	5430	> 200000	–
590	4200	CN(CCOc1ccc(CC2SC(=O)NC2=O)cc1)c1ccccn1 (centres unmarked) [Rosiglitazone, reference compound]	–	–	–
360	11400	CCCCc1nc(Cl)c(CO)n1Cc1ccc(-c2ccccc2-c2nn[nH]n2)cc1 [Losartan, reference compound]	–	–	Unbound Fraction ([3]; ref Drugbank (https://www.drugbank.ca/drugs/DB00678)): 1.4%^d
–	–	C[C@]12CC[C@H](OS(=O)(=O)O)CC1=CC[C@@H]1[C@@H]2CC[C@]2(C)C(c3cccnc3)=CC[C@@H]12 [Abiraterone sulfate]	1830	38200	Cmax [3, 8]: 25 µM; Cmax,u [4]: 0.25 µM
–	–	O=C(O)Cc1ccccc1Nc1c(Cl)cc(O)cc1Cl [4-Hydroxy diclofenac]	2030	480	–
2940	19900	O=c1n(CCCN2CCN(c3cccc(Cl)c3)CC2)nc2ccccn12 [Trazodone, reference compound]	–	–	–
660	3680	CSc1ccc(/C=C2/C(C)=C(CC(=O)O)c3cc(F)ccc32)cc1 [Sulindac sulfide]	–	–	Cmax [3, 9]: 22.6 µM; Unbound Fraction [3, 9]: 6.01%; Unbound Fraction [3, 10]: 4.6%
–	–	CC1=C(CC(=O)O)c2cc(F)ccc2/C1=C\c1ccc(S(C)(=O)=O)cc1 [Sulindac sulfone]	600	23000	Cmax [3, 9]: 4.48 µM; Unbound Fraction [3, 10]: 2.1%^b
–	–	C[C@H](C(=O)O)c1ccc2cc(O)ccc2c1 [(S)-O-desmethyl naproxen]	3440	4700	–
–	–	C[C@]12CC[C@H](OS(=O)(=O)O)CC1=CC[C@@H]1[C@@H]2CC[C@]2(C)C(c3ccc[n+]([O-])c3)=CC[C@@H]12 [Abiraterone N-oxide sulfate]	1360	–	Cmax [3, 8]: 9.2 µM; Ki (human OAT1; [11]): > 100000 nM; Cmax,u [4]: 0.092 µM
> 20000	> 20000	C[C@]12CC[C@H](O)CC1=CC[C@@H]1[C@@H]2CC[C@]2(C)C(c3cccnc3)=CC[C@@H]12 [Abiraterone, reference compound]	–	–	basic pKa [5]: 5.19; Cmax [3, 8]: 0.37 µM
–	–	CN(CCOc1ccc(CC2SC(=O)NC2=O)cc1)c1ccc(O[C@@H]2O[C@H](C(=O)O)[C@@H](O)[C@H](O)[C@H]2O)cn1 (stereo partly drawn) [5-Hydroxy Rosiglitazone β-D-Glucuronide]	> 200000	> 200000	–
–	–	O=C1NC(=O)C(Cc2ccc(OCCNc3ccccn3)cc2)S1 (centres unmarked) [N-desmethyl rosiglitazone]	1150	33300	–
1650	56800	CC1=C(CC(=O)O)c2cc(F)ccc2/C1=C\c1ccc([S+](C)[O-])cc1 (centres unmarked) [Sulindac, reference compound]	–	–	Unbound Fraction [3, 9]: 6.78%^a
–	–	CC(=O)c1ccc(CCOc2ccc(CC3SC(=O)NC3=O)cc2)nc1 (centres unmarked) [Keto pioglitazone]	730	12500	–
–	–	NS(=O)(=O)c1ccc(-n2nc(C(F)(F)F)cc2-c2ccc(C(=O)O)cc2)cc1 [Celecoxib carboxylic acid]	8430	262000	acidic pKa [5]: 3.98
–	–	CC(C)c1nc(N(C)S(C)(=O)=O)nc(-c2ccc(F)cc2)c1/C=C/[C@@H](O)C[C@@H](O)CC(=O)O [rosuvastatin]	–	–	renal clearance as share of total plasma clearance [6]: 28%; share of renal clearance thought to result from OAT3-mediated tubular secretion [6]: 90%
–	–	Cc1c(CC(=O)O)c2cc(O)ccc2n1C(=O)c1ccc(Cl)cc1 [O-desmethyl indomethacin]	270	1620	–

Ki (human OAT3 [2]) [nM]	Ki (human OAT1) [nM]	Molecule	Ki (human OAT3 [1]; read-out: Ki (OAT3)) [nM]	Ki (human OAT1; read-out: Ki (OAT1)) [nM]	further results
1800	1910	CC(C(=O)O)c1ccc(-c2ccccc2)c(F)c1 (centres unmarked) [Flurbiprofen, reference compound]	–	–	–
810	3010	Cc1ccc(C(=O)c2ccc(CC(=O)O)n2C)cc1 [Tolmetin, reference compound]	–	–	–
–	–	C[C@]12CC[C@@H]3c4ccc(OS(=O)(=O)O)cc4CC[C@H]3[C@@H]1CCC2=O [Estrone sulfate, reference compound]	–	–	Ki (human OAT3 [7]): 1000 nM
110	–	COc1ccc2c(c1)c(CC(=O)O)c(C)n2C(=O)c1ccc(Cl)cc1 [Indomethacin]	–	–	–
–	–	CN1C(C(=O)Nc2ncc(C(=O)O)s2)=C(O)c2ccccc2S1(=O)=O [5-Carboxy-meloxicam]	700	19600	–
1370	27600	CC(O)c1ccc(CCOc2ccc(CC3SC(=O)NC3=O)cc2)nc1 (centres unmarked) [Hydroxy pioglitazone]	–	–	–
–	–	COc1ccc(Cl)cc1C(=O)NCCc1ccc(S(=O)(=O)NC(=O)N[C@H]2CCC[C@@H](O)C2)cc1 (relative stereo) [3-cis-hydroxycyclohexyl glyburide]	810	–	Ki (human OAT1; [11]): 10100 nM
–	–	CCCN(CCC)S(=O)(=O)c1ccc(C(=O)O[C@@H]2O[C@H](C(=O)O)[C@@H](O)[C@H](O)[C@H]2O)cc1	–	–	Ki (human OAT3 [7]): 19900 nM
210	5700	COc1ccc(Cl)cc1C(=O)NCCc1ccc(S(=O)(=O)NC(=O)NC2CCCCC2)cc1 [Glyburide, reference compound]	–	–	–
–	–	CN(CCOc1ccc(CC2SC(=O)NC2=O)cc1)c1ccc(OS(=O)(=O)O)cn1 (centres unmarked) [5-OH-rosiglitazone sulfate]	1310	33700	–
–	–	Cc1ccc(NC(=O)c2ccc(CN3CC[N+](C)([O-])CC3)cc2)cc1Nc1nccc(-c2cccnc2)n1 [Imatinib (piperidine)-4-oxide]	64200	> 200000	–
–	–	O=c1n(CCCN2CCN(c3ccc(O)c(Cl)c3)CC2)nc2ccccn12 [4-hydroxy-trazodone]	16900	> 200000	–
–	–	4-Hydroxy flurbiprofen	1390	1600	–
–	–	CC(=O)C[C@@H](c1ccccc1)c1c(O)c2ccc(O)cc2oc1=O [(S)-7-hydroxy warfarin]	1930	14500	–
> 200000	> 200000	Cc1ccc(-c2cc(C(F)(F)F)nn2-c2ccc(S(N)(=O)=O)cc2)cc1 [Celecoxib, reference compound]	–	–	–
540	6880	Cc1cnc(NC(=O)C2=C(O)c3ccccc3S(=O)(=O)N2C)s1 [Meloxicam, reference compound]	–	–	–
–	–	Cc1ccc(C(=O)c2ccc(CC(=O)O[C@@H]3O[C@H](C(=O)O)[C@@H](O)[C@H](O)[C@H]3O)n2C)cc1 [Tolmetin β-D-glucuronide]	2920	7170	–
1020	6300	CCc1ccc(CCOc2ccc(CC3SC(=O)NC3=O)cc2)nc1 (centres unmarked) [Pioglitazone, reference compound]	–	–	–

Molecule	Ki (human OAT3 [2]) [nM]	Ki (human OAT1) [nM]	Ki (human OAT3 [1]; read-out: Ki (OAT3)) [nM]	Ki (human OAT1; read-out: Ki (OAT1)) [nM]	further results
CC(=O)CC(c1ccccc1)c1c(O)c2ccccc2oc1=O (centres unmarked) [Warfarin, reference compound]	–	15800	–	–	Ki (human OAT3 [1]): 3110 nM
CC(C(=O)O)c1cccc(C(=O)c2ccccc2)c1 (centres unmarked) [Ketoprofen, reference compound]	–	1730	–	–	Ki (human OAT3 [1]): 1610 nM
CCCCc1nc(Cl)c(C(=O)O)n1Cc1ccc(-c2ccccc2-c2nn[nH]n2)cc1 [Losartan carboxylic acid]	100	690	–	–	plasma unbound fraction ([3]; no reference given): lower than 1%; times more potent in inhibiting OAT3 than parent drug (human OAT3 [1]; metabolite versus losartan): 3.6 times; times more potent in inhibiting OAT1 than parent drug (human OAT1; metabolite versus losartan): 16.5 times

Source: paper PMC8177813 (Journal of pharmaceutical sciences, 2020)
